According to ChEMBL document CHEMBL1128559, “Inhibition of the oncogene product p185erbB-2 in vitro and in vivo by geldanamycin and dihydrogeldanamycin derivatives” (J Med Chem, 1995):

Columns and labels:
Mus musculus [1] = assay: In vivo inhibition of phospho-p185erbB-2 expression in FRE/erbB-2 tumors in nu/nu mice at 100 mg/kg dose.
Mus musculus [2] = assay: In vivo inhibition of phospho-p185erbB-2 expression in FRE/erbB-2 tumors in nu/nu mice at 200 mg/kg dose.
SK-BR-3 [3] = assay: Inhibition of oncogene product p185 erbB-2 from human breast cancer cells(SK-BR-3 cells).
SK-BR-3 [4] = assay: Inhibition of oncogene product p185 erbB-2 from human breast cancer cells(SK-BR-3 cells) at 50 mg/kg dose.; type: functional
SK-BR-3 [5] = assay: […] inhibition of phospho-p185erbB-2 expression in human breast cancer cells(SK-BR-3 cells) at 200 mg/kg dose.; type: functional
Mus musculus [6] = assay: In vivo inhibition of phospho-p185erbB-2 expression in human SK-BR-3 tumors at 100 mg/kg dose in mice; type: functional
Mus musculus [7] = assay: In vivo inhibition of phospho-p185erbB-2 expression in FRE/erbB-2 tumors at 400 mg/kg dose in mice
Mus musculus [8] = assay: In vivo inhibition of phospho-p185erbB-2 expression in FRE/erbB-2 tumors at 50 mg/kg dose in mice
Mus musculus [9] = assay: In vivo inhibition of phospho-p185erbB-2 expression in FRE/erbB-2 tumors at 200 mg/kg dose in mice
Mus musculus [10] = assay: In vivo inhibition of phospho-p185erbB-2 expression in human SK-BR-3 tumors at 100 mg/kg ip dose in mice; type: functional; conditions: SK-BR-3, ip, route intraperitoneal
Mus musculus [11] = species on record: Mus musculus; conditions: 400 mg/kg
Description: In vivo inhibition of phospho-p185erbB-2 expression in human SK-BR-3 tumors at 400 mg/kg dose in mice (lethal)

Mus musculus [12] = assay: In vivo inhibition of phospho-p185erbB-2 expression in FRE/erbB-2 tumors at 200 mg/kg dose ip in mice; conditions: FRE/erbB-2, ip
Mus musculus [13] = assay: In vivo inhibition of phospho-p185erbB-2 expression in human SK-BR-3 tumors at 50 mg/kg ip dose in mice; type: functional; conditions: SK-BR-3, ip, route intraperitoneal
SK-BR-3 [14] = assay: In vitro inhibition of phospho-p185erbB-2 expression in human breast cancer cells(SK-BR-3 cells) at 50 mg/kg dose; type: functional; design: dose 50 mg/kg
Mus musculus [15] = assay: In vivo inhibition of phospho-p185erbB-2 expression in FRE/erbB-2 tumors at 400 mg/kg ip dose in mice; conditions: FRE/erbB-2, ip

| SMILES | inhibition in vivo at 100 mg/kg (Mus musculus [1]) | inhibition in vivo at 200 mg/kg (Mus musculus [2]) | IC50 (SK-BR-3 [3]) | also measured |
| --- | --- | --- | --- | --- |
| CO[C@H]1C[C@H](C)CC2=C(N3CC(O)C3)C(=O)C=C(NC(=O)/C(C)=C/CC[C@H](OC)[C@@H](OC(N)=O)/C(C)=C/[C@H](C)[C@H]1O)C2=O | 29% | 44% | 50 nM |  |
| CO[C@H]1C[C@H](C)CC2=C(N3CCC3)C(=O)C=C(NC(=O)/C(C)=C/CC[C@H](OC)[C@@H](OC(N)=O)/C(C)=C/[C@H](C)[C@H]1O)C2=O | 38% | 27% | 14 nM |  |
| CO[C@H]1C[C@H](C)CC2=C(NCCF)C(=O)C=C(NC(=O)/C(C)=C/CC[C@H](OC)[C@@H](OC(N)=O)/C(C)=C/[C@H](C)[C@H]1O)C2=O |  | 53% | 27 nM |  |
| CO[C@H]1/C=C\C=C(/C)C(=O)NC2=CC(=O)C(N)=C(C[C@@H](C)C[C@H](OC)[C@H](O)[C@@H](C)/C=C(\C)[C@@H]1OC(N)=O)C2=O |  | 47% | 37 nM |  |
| CO[C@H]1C[C@H](C)CC2=C(NCCO)C(=O)C=C(NC(=O)/C(C)=C/CC[C@H](OC)[C@@H](OC(N)=O)/C(C)=C/[C@H](C)[C@H]1O)C2=O |  | 55% | 34 nM |  |
| CO[C@H]1/C=C\C=C(/C)C(=O)NC2=CC(=O)C(N3CCC3)=C(C[C@@H](C)C[C@H](OC)[C@H](O)[C@@H](C)/C=C(\C)[C@@H]1OC(N)=O)C2=O | 61% | 68% | 23 nM |  |
| CO[C@H]1/C=C\C=C(/C)C(=O)NC2=CC(=O)C(NCCC#N)=C(C[C@@H](C)C[C@H](OC)[C@H](O)[C@@H](C)/C=C(\C)[C@@H]1OC(N)=O)C2=O |  |  |  | IC50 (SK-BR-3 [4]): 17 nM; inhibition in vivo at 200 mg/kg (SK-BR-3 [5]): 61% |
| CO[C@H]1C[C@H](C)CC2=C(NC3CC3)C(=O)C=C(NC(=O)/C(C)=C/CC[C@H](OC)[C@@H](OC(N)=O)/C(C)=C/[C@H](C)[C@H]1O)C2=O | 31% |  | 46 nM |  |
| CO[C@H]1/C=C\C=C(/C)C(=O)NC2=CC(=O)C(NCCF)=C(C[C@@H](C)C[C@H](OC)[C@H](O)[C@@H](C)/C=C(\C)[C@@H]1OC(N)=O)C2=O | 50% | 68% | 12 nM |  |
| C=CCNC1=C2C[C@@H](C)C[C@H](OC)[C@H](O)[C@@H](C)/C=C(\C)[C@H](OC(N)=O)[C@@H](OC)/C=C\C=C(/C)C(=O)NC(=CC1=O)C2=O [TANESPIMYCIN] | 55% | 68% | 31 nM | inhibition in vivo at 100 mg/kg (Mus musculus [6]): 60%; inhibition in vivo at 400 mg/kg (Mus musculus [7]): 72%; inhibition in vivo at 50 mg/kg (Mus musculus [8]): 27%; inhibition in vivo at 200 mg/kg (Mus musculus [9]): 80% |
| CO[C@H]1C[C@H](C)CC2=C3N=C(N(C)C)N=C3C=C(NC(=O)/C(C)=C/CC[C@H](OC)[C@@H](OC(N)=O)/C(C)=C/[C@H](C)[C@H]1O)C2=O |  |  |  | IC50 (SK-BR-3 [4]): 50 nM |
| CO[C@H]1/C=C\C=C(/C)C(=O)NC2=CC(=O)C(NC(C)C)=C(C[C@@H](C)C[C@H](OC)[C@H](O)[C@@H](C)/C=C(\C)[C@@H]1OC(N)=O)C2=O |  | 87% | 60 nM |  |
| CO[C@H]1C[C@H](C)CC2=C(NCCC#N)C(=O)C=C(NC(=O)/C(C)=C/CC[C@H](OC)[C@@H](OC(N)=O)/C(C)=C/[C@H](C)[C@H]1O)C2=O |  |  |  | IC50 (SK-BR-3 [4]): 30 nM |
| COCCNC1=C2C[C@@H](C)C[C@H](OC)[C@H](O)[C@@H](C)/C=C(\C)[C@H](OC(N)=O)[C@@H](OC)CC/C=C(\C)C(=O)NC(=CC1=O)C2=O | 42% | 69% | 33 nM |  |
| CO[C@H]1C[C@H](C)CC2=C(N)C(=O)C=C(NC(=O)/C(C)=C/CC[C@H](OC)[C@@H](OC(N)=O)/C(C)=C/[C@H](C)[C@H]1O)C2=O | 45% | 44% | 40 nM |  |
| CO[C@H]1/C=C\C=C(/C)C(=O)NC2=CC(=O)C(NC[C@H](C)O)=C(C[C@@H](C)C[C@H](OC)[C@H](O)[C@@H](C)/C=C(\C)[C@@H]1OC(N)=O)C2=O | 65% | 70% | 99 nM |  |
| CNC1=C2C[C@@H](C)C[C@H](OC)[C@H](O)[C@@H](C)/C=C(\C)[C@H](OC(N)=O)[C@@H](OC)CC/C=C(\C)C(=O)NC(=CC1=O)C2=O |  | 37% | 12 nM |  |
| COC1=C2C[C@@H](C)C[C@H](OC)[C@H](O)[C@@H](C)/C=C(\C)[C@H](OC(N)=O)[C@@H](OC)/C=C\C=C(/C)C(=O)NC(=CC1=O)C2=O [GELDANAMYCIN] |  |  | 70 nM | inhibition in vivo at 100 mg/kg (Mus musculus [10]): 6%; inhibition (Mus musculus [11]): Lethal; inhibition in vivo at 200 mg/kg (Mus musculus [12]): 25%; inhibition in vivo at 50 mg/kg (Mus musculus [13]): 30% |
| CO[C@H]1/C=C\C=C(/C)C(=O)NC2=CC(=O)C=C(C[C@@H](C)C[C@H](OC)[C@H](O)[C@@H](C)/C=C(\C)[C@@H]1OC(N)=O)C2=O |  |  |  | inhibition in vivo at 100 mg/kg (Mus musculus [10]): 34%; IC50 (SK-BR-3 [14]): 300 nM; inhibition in vivo at 400 mg/kg (Mus musculus [15]): 57%; inhibition in vivo at 50 mg/kg (Mus musculus [13]): 29% |
| CO[C@H]1/C=C\C=C(/C)C(=O)NC2=CC3=NC(N(C)C)=NC3=C(C[C@@H](C)C[C@H](OC)[C@H](O)[C@@H](C)/C=C(\C)[C@@H]1OC(N)=O)C2=O |  |  |  | IC50 (SK-BR-3 [4]): 50 nM |
| CO[C@H]1C[C@H](C)CC2=C(NCC(C)O)C(=O)C=C(NC(=O)/C(C)=C/CC[C@H](OC)[C@@H](OC(N)=O)/C(C)=C/[C@H](C)[C@H]1O)C2=O (some centres not stated) |  | 32% | 83 nM |  |
| CO[C@H]1/C=C\C=C(/C)C(=O)NC2=CC(=O)C(NCC(N)=O)=C(C[C@@H](C)C[C@H](OC)[C@H](O)[C@@H](C)/C=C(\C)[C@@H]1OC(N)=O)C2=O |  |  | 1990 nM |  |
| CO[C@H]1C[C@H](C)CC2=C(N3CC(CO)C3)C(=O)C=C(NC(=O)/C(C)=C/CC[C@H](OC)[C@@H](OC(N)=O)/C(C)=C/[C@H](C)[C@H]1O)C2=O |  |  | 1300 nM |  |
| CO[C@H]1/C=C\C=C(/C)C(=O)NC2=CC(=O)C(NC3CCCC3)=C(C[C@@H](C)C[C@H](OC)[C@H](O)[C@@H](C)/C=C(\C)[C@@H]1OC(N)=O)C2=O |  |  | > 3260 nM |  |
| CO[C@H]1/C=C\C=C(/C)C(=O)NC2=CC3=NC(N(C)Cc4ccccc4)=NC3=C(C[C@@H](C)C[C@H](OC)[C@H](O)[C@@H](C)/C=C(\C)[C@@H]1OC(N)=O)C2=O |  |  |  | IC50 (SK-BR-3 [4]): 300 nM |
| CCN(CC)C1=NC2=C3C[C@@H](C)C[C@H](OC)[C@H](O)[C@@H](C)/C=C(\C)[C@H](OC(N)=O)[C@@H](OC)/C=C\C=C(/C)C(=O)NC(=CC2=N1)C3=O |  |  |  | IC50 (SK-BR-3 [4]): 210 nM |
| CO[C@H]1/C=C\C=C(/C)C(=O)NC2=CC(=O)C(O)=C(C[C@@H](C)C[C@H](OC)[C@H](O)[C@@H](C)/C=C(\C)[C@@H]1OC(N)=O)C2=O |  |  | > 3700 nM |  |
